Where two headings read alike, the source gives them in different places.
Tests used:
[1] = tested on: Trypanosoma cruzi amastigotes (Tulahuen strain expressing Lac-Z) cultured in 3T3 fibroblast cells; test: microbe, parasite or virus in culture; type: cell-based
[2] = tested on: L. donovani HU3 strain in mouse peritoneal macrophages; test: Assay for proliferation of Leishmania parasites in infected mouse peritoneal macrophages (SybrGreen staining, high-content imaging, 5 days); type: cell-based, Leishmania donovani; details: L. donovani in mouse peritoneal macrophages, read-out: L. donovani Macrophage EC50
[3] = tested on: Leishmania donovani axenic amastigote parasites; test: Leishmania donovani axenic amastigote proliferation assay (Cell TiterGlo luminescence, 2 day incubation); type: cell-based; details: read-out: L. donovani amastigotes EC50
[4] = tested on: Trypanosoma brucei Lister 427 strain, bloodstream form; test: Assay for proliferation of kinetoplastid parasite Trypanosoma brucei (Cell Titer Glo, 48 hours); type: cell-based; details: T. brucei Lister 427 bloodstream form, read-out: T. brucei EC50
Outline: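 Bloodstream-form T. brucei Lister 427 in HMI-9 medium was exposed to compound (DMSO vehicle) for 48 hours at 37° C, 5% CO2. Parasite growth was read as ATP by CellTiter-Glo luminescence, with EC50 calculated from percent inhibition.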

[5] = Trypanosoma cruzi, TULAHUEN, Fibroblast, T. cruzi amastigotes in 3T3 fibroblast cells, inhibition of proliferation, read-out: T cruzi EC50
[6] = Leishmania donovani, Peritoneal macrophage, inhibition of proliferation
[7] = Leishmania donovani, axenic amastigotes, inhibition of proliferation
[8] = Trypanosoma brucei, inhibition of proliferation
[9] = Trypanosoma cruzi, TULAHUEN, Fibroblast, T. cruzi amastigotes in 3T3 fibroblast cells, read-out: T cruzi EC50
[10] = Leishmania donovani, Peritoneal macrophage
[11] = Leishmania donovani, L. donovani axenic amastigotes

Compound | EC50 [1, 5] [µM] | EC50 [2, 6] [nM] | EC50 [3, 7] [nM] | EC50 [4, 8] [nM] | EC50 [1, 9] [µM] | EC50 [2, 10] [nM] | EC50 [3, 11] [nM] | EC50 ([4]; Trypanosoma brucei) [nM] | also measured
CC(C)OC(=O)Nc1cnc2nc(-c3cc(NC(=O)c4ccco4)ccc3Cl)cn2c1 [Compound 244] | 0.055 | 345 | 152 | 65 |  |  |  |  | 
Cc1nc(C)c(C(=O)Nc2ccc(F)c(-c3cn4cc(C5CCNCC5)cnc4n3)c2)o1 [Compound 538, N-(4-fluoro-3-(6-(piperidin-4-yl)imidazo[1,2-a]pyrimidin-2-yl)phenyl)-2,4-dimethyloxazole-5-carboxamide] |  |  |  |  | 0.447 | 1860 | 2360 | 613 | 
CC(=O)Nc1cnc2nc(-c3cc(NC(=O)c4cnc(C)o4)ccc3F)cn2c1 [Compound 206] | > 20 | > 50000 | 3190 | > 50000 |  |  |  |  | 
Cc1nc(C)c(C(=O)Nc2ccc(F)c(-c3cn4cc(-c5ncc(F)cc5F)cnc4n3)c2)o1 [Compound 447] |  |  |  |  | 0.02 | 1380 | 36 | 103 | 
CC(C)OC(=O)Nc1cnc2nc(-c3cc(NC(=O)N4C(C)CCC4C)ccc3Cl)cn2c1 (stereo not shown) [Compound 270] | 0.701 | 2200 | 2900 | 4110 |  |  |  |  | 
CC(C)OC(=O)N(C)c1cnc2nc(-c3cc(NC(=O)c4ccc(Cl)o4)ccc3F)cn2c1 [Compound 550, isopropyl (2-(5-(5-chlorofuran-2-carboxamido)-2-fluorophenyl)imidazo[1,2-a]pyrimidin-6-yl)(methyl)carbamate] |  |  |  |  | 0.042 | 516 | 176 | 78 | 
Cc1ncc(C(=O)Nc2ccc(F)c(-c3cn4cc(C5=CCOCC5)cnc4n3)c2)o1 [Compound 330] | 0.104 | 114 | 28 | 36 |  |  |  |  | 
Cc1nc(C)c(C(=O)Nc2ccc(F)c(-c3cn4cc(-c5ccc(F)cn5)cnc4n3)c2)o1 [Compound 431] |  |  |  |  | 0.046 | 845 | 79 | 149 | 
Cc1ncc(C(=O)Nc2ccc(F)c(-c3cn4cc(C5CCOCC5)cnc4n3)c2)o1 [Compound 424] |  |  |  |  | 0.118 | 164 | 56 | 54 | 
Cc1nc(C)c(C(=O)Nc2ccc(F)c(-c3cn4cc(NC(=O)C5CCCCO5)cnc4n3)c2)o1 (single isomer, unassigned) [Compound 185] |  |  |  |  |  |  |  |  | EC50 ([1]; T. cruzi amastigotes in 3T3 fibroblast cells, inhibition of proliferation, read-out: T cruzi EC50): 1.07 µM; EC50 ([2]; inhibition of proliferation): 1140 nM; EC50 ([3]; axenic amastigotes, inhibition of proliferation): 462 nM; EC50 ([4]; inhibition of proliferation): 954 nM
Cc1nc(C)c(C(=O)Nc2ccc(F)c(-c3cn4cc(NC(=O)[C@](C)(O)C(F)(F)F)cnc4n3)c2)o1 [Compound 163] | 10.9 | 4450 | 830 | 399 |  |  |  |  | 
O=C(Nc1ccc(F)c(-c2cn3cc(-c4cccnc4)cnc3n2)c1)N1CC(F)(F)C1 [Compound 402] |  |  |  |  | 0.251 | 285 | 69 | 11 | 
Cc1cccc(-c2cnc3nc(-c4cc(NC(=O)N5CCCC5)ccc4F)cn3c2)n1 [Compound 455, N-(4-fluoro-3-(6-(6-methylpyridin-2-yl)imidazo[1,2-a]pyrimidin-2-yl)phenyl)pyrrolidine-1-carboxamide] |  |  |  |  | 0.215 | 681 | 225 | 134 | 
COC(=O)COc1cnc2nc(-c3cc(NC(=O)c4oc(C)nc4C)ccc3F)cn2c1 [Compound 609] |  |  |  |  | > 20 | 5970 | 835 | 1050 | 
Cc1nc(C)c(C(=O)Nc2ccc(F)c(-c3cn4cc(-c5cncc(C(C)C)c5)cnc4n3)c2)o1 [Compound 438] |  |  |  |  | 0.146 | 282 | 141 | 109 | 
Cc1nc(C)c(C(=O)Nc2ccc(F)c(-c3cn4cc(NC(=O)c5nc(N)cn5C)cnc4n3)c2)o1 [Compound 178] | > 20 | > 42500 | 6710 | 2970 |  |  |  |  | 
Cc1nc(C)c(C(=O)Nc2ccc(F)c(-c3cn4cc(NC(=O)C5(C)CCCCO5)cnc4n3)c2)o1 (stereo not shown) [Compound 170] | 1.16 | 887 | 428 | 518 |  |  |  |  | 
Cc1nc(C)c(C(=O)Nc2ccc(F)c(-c3cn4cc(N(C)C(C)C)cnc4n3)c2)o1 [Compound 483] |  |  |  |  | 0.074 | 196 | 169 | 70 | 
Cc1nc(C)c(C(=O)Nc2ccc(F)c(-c3cn4cc(NC(=O)[C@@H]5CCCC[C@@H]5N)cnc4n3)c2)o1 [Compound 168] | > 18.4 | 24400 | 20300 | 4370 |  |  |  |  | 
CC(C)OC(=O)Nc1cnc2nc(-c3cc(Nc4nccc5ccoc45)ccc3F)cn2c1 [Compound 497] |  |  |  |  | 0.112 | 1280 | 641 | 496 | 

Compound | EC50 [1, 5] [µM] | EC50 [2, 6] [nM] | EC50 [3, 7] [nM] | EC50 [4, 8] [nM] | EC50 [1, 9] [µM] | EC50 [2, 10] [nM] | EC50 [3, 11] [nM] | EC50 ([4]; Trypanosoma brucei) [nM] | also measured
CC(C)OC(=O)Nc1cnc2nc(-c3cc(NC(=O)C4CC4)ccc3F)cn2c1 [Compound 240] | 0.602 | > 50000 | 1180 | 439 |  |  |  |  | 
CN(C)c1cnc2nc(-c3cc(NC(=O)N4CC[C@@H](F)C4)ccc3F)cn2c1 [Compound 468] |  |  |  |  | 0.146 | 230 | 87 | 15 | 
O=C(Nc1ccc(F)c(-c2cn3cc(NC4CCOCC4)cnc3n2)c1)N1CCCC1 [Compound 475] |  |  |  |  | 9.16 | 5980 | 1310 | 217 | 
CC(C)c1cnc2nc(-c3cc(NC(=O)N4CC(F)C4)ccc3F)cn2c1 [Compound 415] |  |  |  |  | 0.044 | 114 | 28 | 12 | 
Cc1nc(C)c(C(=O)Nc2ccc(F)c(-c3cn4cc(NC(=O)c5ccc(CN(C)C)cc5)cnc4n3)c2)o1 [Compound 189] | 10.7 | 15500 | 9070 | 4270 |  |  |  |  | 
CNc1cnc2nc(-c3cc(NC(=O)c4oc(C)nc4C)ccc3F)cn2c1 [Compound 212] | 1.3 | 4150 | 1120 | 1010 |  |  |  |  | 
Cc1nc(C)c(C(=O)Nc2ccc(F)c(-c3cn4cc(NC5CCC5)cnc4n3)c2)o1 [Compound 482] |  |  |  |  | 0.547 | 1010 | 569 | 494 | 
Cc1nc(C(=O)Nc2cnc3nc(-c4cc(NC(=O)c5oc(C)nc5C)ccc4F)cn3c2)c(C)o1 [Compound 162] | 0.127 | 540 | 65 | 52 |  |  |  |  | 
Cc1nc(C)c(C(=O)Nc2ccc(F)c(-c3cn4cc(NC5=NC(C)CO5)cnc4n3)c2)o1 (stereo not shown) [Compound 524] |  |  |  |  | 12.7 | 9540 | 3510 | 1000 | 
CC(C)OC(=O)Nc1cnc2nc(-c3cc(NC(=O)c4cnc(C5CC5)o4)ccc3Cl)cn2c1 [Compound 60] | 0.444 | 1100 | 727 | 1540 |  |  |  |  | 
O=C(Nc1ccc(F)c(-c2cn3cc(C4CC4)cnc3n2)c1)N1CC[C@@H](F)C1 [Compound 605] |  |  |  |  | 0.016 | 59 | 21 | 13 | 
O=C(Nc1ccc(F)c(-c2cn3cc(C4=CCOCC4)cnc3n2)c1)N1CC(F)C1 [Compound 318] | 0.146 | 132 | 31 | 19 |  |  |  |  | 
Cc1nc(C)c(C(=O)Nc2ccc(F)c(-c3cn4cc(-c5ccn(C)n5)cnc4n3)c2)o1 [Compound 363] | 0.045 | 136 | 77 | 58 |  |  |  |  | 
Cc1nc(C)c(C(=O)Nc2ccc(F)c(-c3cn4cc(NC(=O)C5(C)CCCO5)cnc4n3)c2)o1 (stereo not shown) [Compound 193] | 1.09 | 717 | 339 | 201 |  |  |  |  | 
CC(C)OC(=O)Nc1cnc2nc(-c3cc(NCC(=O)N4CCCC4)ccc3F)cn2c1 [Compound 560] |  |  |  |  |  | 29700 | 9840 | 5650 | EC50 ([1]; Trypanosoma cruzi, TULAHUEN, Fibroblast, read-out: T cruzi EC50 (μM)): 12.1 µM
Nc1cnc2nc(-c3cc(NC(=O)c4ccc(F)o4)ccc3Cl)cn2c1 [Compound 577, N-(3-(6-aminoimidazo[1,2-a]pyrimidin-2-yl)-4-chlorophenyl)-5-fluorofuran-2-carboxamide] |  |  |  |  | 2.34 | > 50000 | 2990 | 1350 | 
CCN(C)C(=O)Nc1ccc(Cl)c(-c2cn3cc(NC(=O)OC(C)C)cnc3n2)c1 [Compound 250] | 0.631 | 839 | 498 | 112 |  |  |  |  | 
O=C(Nc1ccc(F)c(-c2cn3cc(-c4ccccc4)cnc3n2)c1)N1CC(F)(F)C1 [Compound 319] | 0.02 | 102 | 33 | 20 |  |  |  |  | 
O=C(Nc1ccc(F)c(-c2cn3cc(F)cnc3n2)c1)N1CC(F)C1 [Compound 231] | 0.42 | 1720 | 307 | 313 |  |  |  |  | 
Cc1nc(C)c(C(=O)Nc2ccc(F)c(-c3cn4cc(C(F)(F)F)cnc4n3)c2)o1 [Compound 200] | 0.147 | 631 | 219 | 164 |  |  |  |  | 
